Each structure is given as a SMILES string. Converted amounts (≈) assume the structure as drawn. Where a name gives a salt, the structure may show the parent alone.

The source of these data is US5187188A, “Oxazole carboxylic acid derivatives” (Bristol-Myers Squibb Company, priority 1992, dated 1993).

The experiment deals with human platelets. Put plainly: In vitro inhibition of ADP-induced human platelet aggregation in platelet-rich plasma (aggregometer method of Born). The conditions noted are these: human PRP, 0.5 mcg/mL ADP, about three minutes preincubation. Format: cell-based. The protocol: The aggregometer method of Born, G. V. R., J. Physiol., (London), 162, 67-68, (1962) as modified by Mustard, J. F., et al., J. Lab. Clin. Med., 64, 548-599, (1964) Was used to assess the in vitro activity of the various compounds as to the inhibition of adenosine diphosphate (ADP) and collagen-induced platelet aggregation. The human volunteer donor's arm is cleansed with 70% ethyl alcohol. A sterile 20 ml syringe and needle are used to withdraw 20 ml of blood. The blood is immediately added to a test tube containing 3.8% sodium citrate to prevent clotting (1 part citrate to 9 parts blood).
Platelet rich plasma (PRP) was separated by centrifugation for 10 minutes at 1000 rpm (140×g) from citrated (3.8%) human blood. All glassware used for preparation of PRP is silicon treated. ADP in final concentration of 0.5 mcg/mL or 0.05 mL of a collagen suspension prepared according to the method described by Evans, G., et al., J. Exp. Med., 128, 877-894, (1968) was used to induce aggregation. The various compounds tested were dissolved in dimethylsulfoxide (DMSO) so that 5 mcl added to the platelet rich plasma would yield the desired test concentration. Vehicle control trials were done and compared with aggregation induced in platelet rich plasma containing various concentrations of the test compounds. Dose response curves were obtained and Inhibitor Concentration (IC50) values calculated.
The compounds listed in Table 1 were evaluated as inhibitors of human platelet aggregation in vitro in platelet-rich-plasma (PRP) using […] ADP as the inducing agent. The PRP was incubated with drug for about three minutes prior to the addition of the agonist. The extent of aggregation in the presence of various concentrations of test compounds was compared with that in vehicle controls. Dose-response curves were obtained and IC50 values determined.

Regarding `CC(C)OC(=O)C(Cc1cccc(OCC(=O)OC(C)(C)C)c1)c1nc(-c2ccccc2)c(-c2ccccc2)o1` (stereo not drawn) [Compound 9e, 1-Methylethyl α-[[3-[2-(1,1-dimethylethoxy)-2-oxoethoxy)phenyl]methyl]-4,5-diphenyl-2-oxazoleacetate], the IC50 is > 32 µg/mL.
Then `CC(C)OC(=O)C(=Cc1cccc(OCC(=O)OC(C)(C)C)c1)c1nc(-c2ccccc2)c(-c2ccccc2)o1` [Compound 7e, (E) and (Z)-1-methylethyl α-[[3-[2-(1,1,-dimethylethoxy)-2-oxoethoxy]phenyl]-methylene]-4,5-diphenyl-2-oxazoleacetate], with > 32 µg/mL.
As for `N#C/C(=C\c1cccc(OCC(=O)O)c1)c1nc(-c2ccccc2)c(-c2ccccc2)o1` [Compound 17, (E)-[3-[2-cyano-2-(4,5-diphenyl-2-oxazolyl)ethenyl]phenoxy]acetic acid], the figure is 0.11 µg/mL (≈ 0.26 µM).
Consider `CNC(=O)C(=Cc1cccc(OCC(=O)O)c1)c1nc(-c2ccccc2)c(-c2ccccc2)o1` [Compound 8d, (E) and (Z) [3-[2-(4,5-Diphenyl-2-oxazolyl)-3-(methylamino)-3-oxo-propenyl]phenoxy]acetic acid], for which half-maximal inhibition (IC50) was put at 7 µg/mL (≈ 15.4 µM).
`CCOC(=O)/C(=C\c1cccc(OCC(=O)OC)c1)c1nc(-c2ccccc2)c(-c2ccccc2)o1` [Compound 7b, (Z)-Ethyl-α-[[3-(2-methoxy-2-oxoethoxy)phenyl]methylene]-4,5-diphenyl-2-oxazole acetate] returned an IC50 of 10 µg/mL.
Then `CCOC(=O)C(Cc1cccc(OCC(=O)OC(C)(C)C)c1)c1nc(-c2ccccc2)c(-c2ccccc2)o1` (stereo not shown) [Compound 9a], with > 32 µg/mL.
The compound `COC(=O)COc1cccc(CC(C#N)c2nc(-c3ccccc3)c(-c3ccccc3)o2)c1` (stereo not shown) [Compound 18] had an IC50 of 0.36 µg/mL (≈ 0.821 µM).
Take `NC(=O)C(Cc1cccc(OCC(=O)O)c1)c1nc(-c2ccccc2)c(-c2ccccc2)o1` (stereo not shown) [Compound 10e, [3-[3-Amino-2-(4,5-diphenyl-2-oxazolyl)-3-oxopropyl]phenoxy]acetic acid]: it took 1.7 µg/mL (≈ 3.84 µM) to reach half-maximal inhibition (IC50).
As to `CCOC(=O)C(=Cc1cccc(OCC(=O)OC(C)(C)C)c1)c1nc(-c2ccccc2)c(-c2ccccc2)o1` [Compound 7a, (E) and (Z)-Ethyl α-[[3-[[(1,1-dimethylethoxy)carbonyl]methoxyl]phenyl]methylene]-4,5-diphenyl-2-oxazoleacetate], the IC50 is > 32 µg/mL.
As for `COC(=O)COc1cccc(CC(C(=O)OC(C)C)c2nc(-c3ccccc3)c(-c3ccccc3)o2)c1` (stereo not shown) [Compound 9f], the figure is 3.5 µg/mL (≈ 7.01 µM).
In turn, `COC(=O)COc1cccc(C=C(C(=O)OC(C)C)c2nc(-c3ccccc3)c(-c3ccccc3)o2)c1` [Compound 7f, (E) and (Z) 1-Methylethyl α-[[3-[2-(methoxy-2-oxoethoxy)phenyl]methylene]-4,5-diphenyl-2-oxazoleacetate] showed an IC50 of 5 µg/mL (≈ 10 µM).
With `CNC(=O)C(=Cc1cccc(OCC(=O)OC)c1)c1nc(-c2ccccc2)c(-c2ccccc2)o1` [Compound 7h, (E) and (Z) Methyl [3-[2-(4,5-diphenyl-2-oxazolyl)-3-methylamino-3-oxo-propenyl]phenoxy]acetate], the IC50 turned out to be 1.3 µg/mL (≈ 2.77 µM).
On to `COC(=O)COc1cccc(/C=C(\C#N)c2nc(-c3ccccc3)c(-c3ccccc3)o2)c1` [Compound 16, (E)-Methyl[3-[2-cyano-2-(4,5-diphenyl-2-oxazolyl)ethenyl]phenoxy]acetate], for which the IC50 came out at 8 µg/mL (≈ 18.3 µM).
In the case of `CCOC(=O)C(Cc1cccc(OCC(=O)O)c1)c1nc(-c2ccccc2)c(-c2ccccc2)o1` (stereo not drawn) [Compound 10a, Ethyl α-[[3-hydroxy-2-oxoethoxyl]phenyl]methyl]-4,5-diphenyl-2-oxazole ace tate], half-maximal inhibition (IC50) required 0.06 µg/mL (≈ 0.127 µM).
Then `CCOC(=O)/C(=C/c1cccc(OCC(=O)OC)c1)c1nc(-c2ccccc2)c(-c2ccccc2)o1` [Compound 7c, (E)-Ethyl α-[[3-(2-methoxy-2-oxoethoxy)phenyl]methylene]-4,5-diphenyl-2-oxazole acetate], with 1 µg/mL.
As for `N#CC(Cc1cccc(OCC(=O)O)c1)c1nc(-c2ccccc2)c(-c2ccccc2)o1` (stereo not shown) [Compound 19, [3-[2-Cyano-2-(4,5-diphenyl-2-oxazolyl)ethyl]phenoxy]acetic acid], the figure is 0.2 µg/mL (≈ 0.471 µM); as for `CNC(=O)C(Cc1cccc(OCC(=O)OC)c1)c1nc(-c2ccccc2)c(-c2ccccc2)o1` (stereo not shown) [Compound 9i, Methyl[3-[2-(4,5-diphenyl-2-oxazolyl)-3-(methylamino)-3-oxo-propyl]phenoxy]acetate], 3.5 µg/mL (≈ 7.44 µM).
Then `CCOC(=O)C(Cc1cccc(OCC(=O)OC)c1)c1nc(-c2ccccc2)c(-c2ccccc2)o1` (stereo not drawn) [Compound 9b, Ethyl α-[(3-[(methoxycarbonyl)methoxyl]phenyl]-methyl]-4,5-diphenyl-2-oxazole acetate], with 0.75 µg/mL; and `COC(=O)COc1cccc(C=C(C(N)=O)c2nc(-c3ccccc3)c(-c3ccccc3)o2)c1` [Compound 7g, (E) and (Z) Methyl [3-[3-amino-2-(4,5-diphenyl)-2-oxazolyl]-3-oxo-1-propenyl]phenoxy]acetate], with 2.5 µg/mL (≈ 5.5 µM); and `CN(C)C(=O)C(Cc1cccc(OCC(=O)O)c1)c1nc(-c2ccccc2)c(-c2ccccc2)o1` (stereo not shown) [Compound 10g, [3-[3-(Dimethylamino)-2-(4,5-diphenyl-2-oxazolyl)-3-oxopropyl]phenoxy]acetic acid], with 1.7 µg/mL (≈ 3.61 µM).
For `CC(C)(C)OC(=O)COc1cccc(CC(C(N)=O)c2nc(-c3ccccc3)c(-c3ccccc3)o2)c1` (stereo not shown) [Compound 9g, (t-Butyl [3-3-amino-2-(4,5-diphenyl-2-oxazolyl)-3-oxopropyl]phenoxy acetate], the IC50 was > 32 µg/mL.
With `COC(=O)C(Cc1cccc(OCC(=O)OC(C)(C)C)c1)c1nc(-c2ccccc2)c(-c2ccccc2)o1` (stereo not drawn) [Compound 9c, Methyl α-[[3-(2-(1,1-dimethylethoxy-2-oxoethoxy)phenyl]methyl]-4,5-diphenyl-2-oxazole acetate], the IC50 was > 32 µg/mL.
As for `CN(C)C(=O)/C(=C\c1cccc(OCC(=O)O)c1)c1nc(-c2ccccc2)c(-c2ccccc2)o1` [Compound 8e, (Z)-[3-[3-(Dimethylamino)-2-(4,5-diphenyl-2-oxazolyl)-3-oxo-1-propenyl]phenoxy]acetic acid], the figure is 5.8 µg/mL (≈ 12.4 µM).
Take `COC(=O)C(Cc1cccc(OCC(=O)O)c1)c1nc(-c2ccccc2)c(-c2ccccc2)o1` (stereo not drawn) [Compound 10c, Methyl α-[[3-(2-hydroxy-2-oxoethoxy)phenyl]methyl]-4,5-diphenyl-2-oxazole acetate]: the IC50 was 0.037 µg/mL.
As for `COC(=O)COc1cccc(C=C(C(=O)OC)c2nc(-c3ccccc3)c(-c3ccccc3)o2)c1` [Compound 7d, Methyl (E) and (Z) α-[[3-(2-methoxy-2-oxoethoxy)phenyl]methylene]-4,5-diphenyl-2-oxazoleacetate], the figure is 0.5 µg/mL (≈ 1.06 µM).
As for `COC(=O)COc1cccc(/C=C(\C(=O)N(C)C)c2nc(-c3ccccc3)c(-c3ccccc3)o2)c1` [Compound 7i, (Z)-Methyl [3-[3-(dimethylamino)-2-(4,5-diphenyl-2-oxazolyl)-3-oxo-1-propenyl]phenoxy]acetate], the IC50 was > 32 µg/mL.
Turning to `COC(=O)COc1cccc(CC(C(=O)OC)c2nc(-c3ccccc3)c(-c3ccccc3)o2)c1` (stereo not drawn) [Compound 9d, Methyl α-[[3-(2-methoxy-2-oxoethoxy)phenyl]methyl]-4,5-diphenyl-2-oxazole acetate], the IC50 stood at 0.6 µg/mL.
Consider `CC(C)OC(=O)C(Cc1cccc(OCC(=O)O)c1)c1nc(-c2ccccc2)c(-c2ccccc2)o1` (stereo not shown) [Compound 10d], for which the IC50 is 0.6 µg/mL (≈ 1.24 µM).
`COC(=O)COc1cccc(CC(C(=O)N(C)C)c2nc(-c3ccccc3)c(-c3ccccc3)o2)c1` (stereo not shown) [Compound 9j] registered an IC50 of 16 µg/mL (≈ 33 µM).
As for `CCOC(=O)C(=Cc1cccc(OCC(=O)O)c1)c1nc(-c2ccccc2)c(-c2ccccc2)o1` [Compound 8a, (E) and (Z) Ethyl α-[[3-carboxymethoxy)phenyl]methylene]-4,5-diphenyl-2-oxazole acetate], inhibition was half-maximal at 0.17 µg/mL (IC50).
As for `COC(=O)COc1cccc(CC(C(N)=O)c2nc(-c3ccccc3)c(-c3ccccc3)o2)c1` (stereo not drawn) [Compound 9h, Methyl[3-[α-Amino-2-(4,5-diphenyl-2-oxazolyl)-3-oxopropyl]phenoxy]acetic acid], the IC50 was > 32 µg/mL.
With `O=C(O)COc1cccc(CC(C(=O)O)c2nc(-c3ccccc3)c(-c3ccccc3)o2)c1` (stereo not drawn) [Compound 10b, α-[[3-(2-Hydroxy-2-oxoethoxy)phenyl]methyl]-4,5-diphenyl-2-oxazoleacetic acid, disodium salt], half-maximal inhibition (IC50) required 7 µg/mL.
For `O=C(O)COc1cccc(C=C(C(=O)O)c2nc(-c3ccccc3)c(-c3ccccc3)o2)c1` [Compound 8b], the midpoint of inhibition, the IC50, lay at 9 µg/mL (≈ 20.4 µM).
As for `CNC(=O)C(Cc1cccc(OCC(=O)O)c1)c1nc(-c2ccccc2)c(-c2ccccc2)o1` (stereo not shown) [Compound 10f, [3-[2-(4,5-Diphenyl-2-oxazolyl)-3-(methylamino)-3-oxopropyl]phenoxy]acetic acid], the figure is 0.32 µg/mL (≈ 0.701 µM).
